Assay results published in patent US20230057699A1, “NANOTECHNOLOGY-BASED PESTICIDES AND INTERMEDIATES, COMPOSITIONS AND TREATMENTS USING THE SAME” (priority 2020, published 2023).
Values joined by “and” are separate entries in the source; they are usually repeats but may differ in a detail not shown here. Identical values can stand only once. Like-named read-outs stand apart in the source and are kept apart here.

Columns and labels:
[1] = tested on: Pseudokirchneriella subcapitata; assay: Green alga total chlorophyll (a+b) analysis; format: cell-based
Protocol: Control group (panel A) received only growth medium (100 mL). Chlorophylls (a and b) were extracted using a 95% ethanol method and measured using an UV-Vis spectrophotometer (Hach DR6000). Each treatment received 1.2×10^6 cells/mL on day-0 and were allowed to grow until day-28 when the experiments were halted. Chlorophylls were recorded on day-7 (acute), day-14 and day-28 (chronic).
(§1) 1.a. […] Experiments were repeated twice for NoPest-Ag5, Ag+ ions and control groups, and data were combined. Algae were cultured in an Erlenmeyer flask with 100 mL growth media using a16:8 h day:night cycle at 25±2° C. under the LED lighting of 4830 lux. Microscopic analysis coupled with hemocytometer was used to measure cell growth, and total chlorophyll (chlorophyll [a+b]) was used to measure primary productivity, in algae.
1.b. Chlorophyll analysis: Chlorophylls (a and b) were extracted using 95% ethanol method, measured using UV-Vis spectrophotometer (Hach DR6000), and reported as total chlorophyll (a+b).

[2] = tested on: Pseudokirchneriella subcapitata; assay: Green alga cell growth (cell count); format: cell-based
Protocol: Control group (panel A) received only growth medium (100 mL). Each treatment received 1.2×10^6 cells/mL on day-0 and were allowed to grow until day-28 when the experiments were halted. Cell count was recorded on day-7 (acute), day-14 and day-28 (chronic).
as §1

Daphnia magna [3] = assay: Daphnia magna chronic 21-day reproduction test; format: in vivo
Text: FIG. 23 depicts a Daphnia magna 21-day (chronic) reproduction test.
This mirrors OECD 202, Daphnia sp. Reproduction Test.

[4] = tested on: honeybee, Apis mellifera L.; assay: Honeybee 48-hour contact (dermal) exposure test (OECD 214); format: in vivo; settings: for 48-hour Mortality: per replicate of 10 bees, listed as Positive Control
Protocol: (§2) Pollinators, especially honeybees, are susceptible to certain insecticides. Understanding the susceptibility of honeybees will determine the test substance's safe use in the environment as well as when the product should be used in relation to honeybee activity.
Honeybee 48-hour Contact (Dermal) Exposure Test Contact exposure followed OECD Test 214 method. Young adult worker honeybees were exposed to six test doses ranging from 0.1 to 40 ng a.i./bee administered topically to the dorsal side of the thorax of each bee in a 2 μL droplet of water containing 1% Tween 80 surfactant. A negative control group and a surfactant control group were maintained concurrently. Additional groups of bees from the same source were nominally dosed with imidacloprid, at 0.032, 0.08 and 0.2 μg a.i./bee as a positive control substance. The positive control test was conducted concurrently with the definitive test and the bees were administered topically to the dorsal side of the thorax of each bee in a 2.0 μL droplet with water containing […] surfactant. Three replicate test chambers were maintained in each control and treatment group, with 10 bees in each test chamber. Observations of mortality and other signs of toxicity were made for approximately 48 hours after dosing. Cumulative mortality observed in the test groups was used to determine the LD50.

Daphnia magna [5] = assay: Daphnia magna acute 48-hour survival test
Protocol: FIG. 22 depicts a Daphnia magna 48-hour (acute) toxicity test.
This mirrors OECD 202, Daphnia sp. Reproduction Test. […] Daphnia were cultured in a beaker (500 mL) using 16:8 h day:night cycle at 20±2° C. under the diffused cool LED lighting.

[6] = tested on: honeybee, Apis mellifera L.; assay: Honeybee 48-hour oral exposure test (OECD 213); format: in vivo; settings: for 48-hour Mortality: per replicate of 10 bees; for Consumption after 6 hours: Consumed: per replicate, 200 μL provided
Protocol: as §2
Honeybee 48-hour Oral Exposure Test: Oral exposure followed OECD Test 213 method. […] The test included nominal test item doses ranging from 1 to 400 ng a.i./bee (ppt a.i./bee) and a concurrent negative control group. Additional groups of bees from the same source were dosed with imidacloprid, at 0.0013, 0.0032 and 0.008 μg a.i./bee (ppb a.i./bee) as a positive control substance, also conducted concurrently. Three replicate test chambers were maintained in each control and treatment group, with 10 bees in each test chamber. Observations of mortality and other signs of toxicity were made for approximately 48 hours after dosing. Cumulative mortality observed in the test groups was used to determine the LD50 (lethal dose that kills 50% of the test populations).

[7] = tested on: honeybee, Apis mellifera L.; assay: Honeybee 48-hour contact (dermal) exposure test (OECD 214); format: in vivo; settings: 0.008 μg a.i./bee [4 mg a.i./L], per replicate of 10 bees, listed as Positive Control
E. coli DH5α [8] = assay: Surface interaction with bacterial cells (imaging); format: cell-based, Escherichia coli; settings: 10 mg/L (as total Ag), 72 h
Protocol: (§3) FIG. 8 depicts the antimicrobial effects of positively charged NH2—AgNPs compared with carboxylate/citrate AgNPs (cit-AgNPs) and Ag^+ ions on E. coli DH5α and K12 growth (panel A), and the effects of the surface interaction of 10 mg/L (equivalent to 10 ppm) NH2—AgNPs compared with the effects of the surface interaction of Cit-AgNPs and Ag^+ ions on E. coli DH5α (panel B).

E. coli K12 = assay: Antimicrobial growth curves; format: cell-based, Escherichia coli; settings: 10 ppm
Protocol: as §3

E. coli DH5α [9] = assay: Antimicrobial growth curves; format: cell-based, Escherichia coli; settings: 10 ppm
Protocol: as §3

Soybean seeds = assay: Soybean seedling biomass; format: in vivo, Glycine max; settings: 0.2-50 mg/L, day-7
Text: FIG. 13 depicts the effect of exposure to NH2—AgNPs on soybean seedling biomass.

Corn (Zea mays) seeds = assay: Corn seed germination; settings: 0.25-50 mg/L, 7 days
soybean seed = assay: Soybean seed germination; settings: 0.25-50 mg/L, 7 days
[10] = 0.032 μg a.i./bee [16 mg a.i./L]
[11] = 0.2 μg a.i./bee [100 mg a.i./L]
[12] = 0.0013 μg a.i./bee [0.0065 mg a.i./L]
[13] = 0.0032 μg a.i./bee [0.016 mg a.i./L]
[14] = 0.0032 μg a.i./bee [0.016 mg a.i./L], listed as Positive Control
[15] = 0.008 μg a.i./bee [0.04 mg a.i./L]
[16] = 0.008 μg a.i./bee [0.04 mg a.i./L], listed as Positive Control

With [Cd+2] [Cd^2+ ions] the Chlorophyll synthesis ([1]; 0.05-0.75 mg/L) was “chlorophyll synthesis did occur”, the “Chlorophyll synthesis compared to control” value ([1]; at or above 1 mg/L) was “inhibited chlorophyll synthesis” and the “Algal growth compared to control (cell count)” value ([2]; 0.5 mg/L) was “stimulatory”. For the same molecule, the “Algal toxicity (cell count)” value ([2]; at or above 0.75 mg/L) was “toxicity of Cd^2+ ions increased”.
In the case of O=[N+]([O-])NC1=NCCN1Cc1ccc(Cl)nc1 [Imidacloprid], the “Comparative toxicity of all four test compounds (chlorophyll)” value [1] is reported as “least toxic”, the “Toxicity by total chlorophyll” value [1] is reported as “generally non-toxic” and the “Reproduction compared with control” value (Daphnia magna [3]) is reported as “not significantly different from control”. For the same molecule, the “48-hour Mortality Mean” value ([4]; 0.008 μg a.i./bee [4 mg a.i./L]) was 10%, the “48-hour Mortality Mean” value [4, 10] was 33% and the “48-hour Mortality” value [4, 10] was 40% and 10% and 50%. The “48-hour Mortality Mean” value [4, 11] was 77%, the “48-hour Mortality” value [4, 11] was 70% and 100% and 60% and the “Surviving bees that appeared lethargic” value ([4]; 24 lethargic out of 54 surviving bees) was 46.3%. The LD50 ([4]; 48-hour) was 0.11 μg a.i./bee, the Average mortality ([4]; 48-hr, positive control doses, n=30 bees per concentration) was 10%-77% and the Mean survival (Daphnia magna [5]; all concentrations tested) was 66.6-86.6%. For the same molecule, the “Comparative toxicity of all four test compounds (cell count)” value [2] was “least toxic”, the “Algal toxicity based on cell count” value ([2]; all concentrations tested) was “generally non-toxic, except at a high concentration of 100 mg/L” and the Cell growth ([2]; by day-28) was “concentration-dependent inhibition above 1 mg/L”. For the same molecule, the “48-hour Mortality Mean” value [6, 12] was 0%, the “Consumption after 6 hours: Consumed, Mean” value (from here on “Consumption … Consumed, Mean”) [6, 12] was 198 µL and the “48-hour Mortality” value [6, 12] was 0%. For the same molecule, the “Consumption after 6 hours: Consumed” value ([6]; 0.0013 μg a.i./bee [0.0065 mg a.i./L], listed as Positive Control) was 200 μL (2×) and 195 μL, the “48-hour Mortality Mean” value [6, 13] was 3% and the “Consumption … Consumed, Mean” value [6, 13] was 163 µL. For the same molecule, the “48-hour Mortality” value [6, 14] was 0% (2×) and 10%, the “Consumption after 6 hours: Consumed” value [6, 14] was 140 µL and 150 µL and 200 µL and the “48-hour Mortality Mean” value [6, 15] was 7%. For the same molecule, the “Consumption … Consumed, Mean” value [6, 15] was 88 µL, the “48-hour Mortality” value [6, 16] was 0% (2×) and 20% and the “Consumption after 6 hours: Consumed” value [6, 16] was 85 µL and 110 µL and 70 µL. The Average survival ([6]; 48-hr, 0.0013-0.008 μg a.i./bee) was 93%-97%, the “Appearance of surviving bees at test termination” value ([6]; 48 hours) was “appeared normal” and the “Mean consumption per replicate” value ([6]; positive control groups) was 88 to 198 µL. For the same molecule, the “48-hour Mortality” value [7] was 0% and 20% and 10%.
In the case of [Ag+] [Ag^+ ions], the “Toxicity by total chlorophyll” value ([1]; 10 mg/L) is reported as “less toxic compared to NoPest-Ag5”, the “Mean decrease in reproduction” value (Daphnia magna [3]; 0.01 mg/L) is reported as 6.6% and the “Mean increase in reproduction” value (Daphnia magna [3]; concentrations except 0.01 mg/L) is reported as 126.6-1120%. The “Cell integrity after surface interaction” value (E. coli DH5α [8]) was “intact cells were observed, but with a shape change to a hexagonal honeycomb like phenotype lacking adherent fimbriae”, the “Comparative toxicity of all four test compounds (cell count)” value [2] was “most toxic” and the “Algal growth compared to control (cell count)” value ([2]; at or above 1 mg/L) was “inhibited algal growth”. For the same molecule, the “Nature of effect based on growth curves” value (E. coli K12) was “bacteriostatic effects”, the “Nature of effect based on growth curves” value (E. coli DH5α [9]) was “bacteriostatic effects” and the “Seedling biomass compared to control (water only)” value (Soybean seeds) was “promoted seedling biomass”. The “Toxicity in germination of corn” value (Corn (Zea mays) seeds) was “non-toxic” and the “Toxicity in germination of soybean” value (soybean seed) was “non-toxic”.
Work on [Cu+2] [Cu^2+ ions] yielded a Mean survival (Daphnia magna [5]; 0.5 mg/L) of 0%.
